Results published in patent US20080234324A1, “Piperidine Derivatives as Gcs Inhibitors” (priority 2004, published 2008).

Tests used:
[1] = molecular target: T1, human recombinant GCS expressed in insect cells (Homo sapiens, UniProt Q16739); assay: Inhibition of GCS; type: biochemical
T1 construct: made in house; host or cells: insect cells
T1 sequence (Q16739 1-394): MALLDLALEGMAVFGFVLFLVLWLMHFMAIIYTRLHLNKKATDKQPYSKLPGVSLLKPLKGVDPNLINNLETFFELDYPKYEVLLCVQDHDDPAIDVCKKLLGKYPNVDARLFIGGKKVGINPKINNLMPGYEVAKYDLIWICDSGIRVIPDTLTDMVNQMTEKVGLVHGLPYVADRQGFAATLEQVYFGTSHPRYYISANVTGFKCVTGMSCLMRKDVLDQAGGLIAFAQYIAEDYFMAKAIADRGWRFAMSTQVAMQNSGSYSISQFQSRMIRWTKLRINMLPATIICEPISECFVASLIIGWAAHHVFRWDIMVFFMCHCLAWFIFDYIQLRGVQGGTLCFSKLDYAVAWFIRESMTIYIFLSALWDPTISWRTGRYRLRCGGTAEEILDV
Procedure: The assay for inhibition of GCS was performed essentially as described in Platt et al., J. Biol. Chem., (1994), 269, 27108, the enzyme source being human recombinant GCS expressed in insect cells.

[2] = molecular target: T2, non-lysosomal-β-glucocerebrosidase (Homo sapiens, UniProt Q9HCG7); assay: Inhibition of non-lysosomal-β-glucocerebrosidase; type: biochemical; details: whole cell extracts of MCF7 as enzyme source; 5 mM 4-MU β-glucoside; pH 5.8
T2 construct: whole cell extracts of MCF7 (a human breast carcinoma cell line) was used as the source of the enzyme; endogenous in cells; host or cells: MCF7 whole cell extract
T2 sequence (Q9HCG7 1-927): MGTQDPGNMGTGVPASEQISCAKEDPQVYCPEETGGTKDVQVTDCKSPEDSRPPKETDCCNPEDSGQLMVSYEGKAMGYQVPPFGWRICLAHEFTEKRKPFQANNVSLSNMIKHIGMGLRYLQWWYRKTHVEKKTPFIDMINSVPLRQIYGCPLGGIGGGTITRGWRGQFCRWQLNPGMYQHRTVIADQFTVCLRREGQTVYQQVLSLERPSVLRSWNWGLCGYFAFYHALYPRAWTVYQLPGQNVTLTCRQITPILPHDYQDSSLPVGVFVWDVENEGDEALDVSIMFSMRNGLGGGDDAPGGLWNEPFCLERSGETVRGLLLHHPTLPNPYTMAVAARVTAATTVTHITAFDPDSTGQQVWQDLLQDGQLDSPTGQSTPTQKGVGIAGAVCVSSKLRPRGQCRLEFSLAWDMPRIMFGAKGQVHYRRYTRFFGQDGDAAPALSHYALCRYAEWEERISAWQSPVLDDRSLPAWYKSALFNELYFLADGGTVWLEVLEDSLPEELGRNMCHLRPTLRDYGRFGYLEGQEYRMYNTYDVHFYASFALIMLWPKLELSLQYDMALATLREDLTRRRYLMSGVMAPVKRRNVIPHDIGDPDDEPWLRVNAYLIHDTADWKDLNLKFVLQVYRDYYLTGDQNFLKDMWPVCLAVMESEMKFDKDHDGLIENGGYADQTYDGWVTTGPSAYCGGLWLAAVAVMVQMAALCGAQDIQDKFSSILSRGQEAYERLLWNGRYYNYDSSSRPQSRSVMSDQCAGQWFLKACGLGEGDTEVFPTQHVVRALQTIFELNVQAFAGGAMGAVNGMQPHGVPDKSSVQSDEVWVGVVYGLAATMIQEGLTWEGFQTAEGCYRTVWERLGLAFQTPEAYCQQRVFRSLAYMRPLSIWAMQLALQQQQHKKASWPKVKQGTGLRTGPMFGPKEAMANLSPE

OC[C@@H]1[C@H](O)[C@H](O)[C@@H](O)CN1Cc1ccc(OCc2ccccc2)cc1 [Example 1]
IC50 [1]: 1.3 µM
IC50 [2]: 10 µM
